From publication PMC9402538, “Rational design of a sensitivity-enhanced tracer for discovering efficient APC–Asef inhibitors” (Nature Communications, 2022)
Several values for one entry are separate records, joined by “and”; a condition that tells them apart may be missing. Equal entries are not always repeated. Entries after “also recorded” stand apart in the source; their conditions may differ. Where two headings read alike, the source gives them in different places. Where a SMILES comes first, the peptide text is derived from it. The star is where a group is joined. Benzoyl(4-OMe) = COc1ccc(C(=O)*)cc1

How the values were obtained:
[1] = target: T1, APC–Asef PPI (HA–APC (303–876), FLAG–Asef (170–632)) (Homo sapiens, UniProt P25054); assay: Exogenous Co-IP of APC–Asef in drug-treated HEK293T cells; details: 24 h, TAT + linker and MAI-516 50 μM, MAIT-516 25 and 50 μM
T1 sequence (P25054 303-876): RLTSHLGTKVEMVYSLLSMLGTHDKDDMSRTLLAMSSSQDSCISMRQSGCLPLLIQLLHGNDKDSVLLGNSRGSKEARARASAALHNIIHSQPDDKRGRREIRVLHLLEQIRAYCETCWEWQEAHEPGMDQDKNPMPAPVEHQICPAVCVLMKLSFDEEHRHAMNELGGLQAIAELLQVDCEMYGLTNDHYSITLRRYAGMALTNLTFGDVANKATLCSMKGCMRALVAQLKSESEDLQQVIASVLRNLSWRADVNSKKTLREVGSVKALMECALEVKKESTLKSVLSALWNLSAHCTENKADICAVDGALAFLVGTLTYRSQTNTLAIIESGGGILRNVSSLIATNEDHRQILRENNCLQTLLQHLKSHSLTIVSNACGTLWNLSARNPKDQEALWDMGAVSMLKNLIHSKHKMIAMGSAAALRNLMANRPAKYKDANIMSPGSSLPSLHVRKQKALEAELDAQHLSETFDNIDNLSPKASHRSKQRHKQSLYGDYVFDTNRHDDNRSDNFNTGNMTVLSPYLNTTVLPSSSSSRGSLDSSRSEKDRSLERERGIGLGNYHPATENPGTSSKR
Procedure: For direct western blot analysis, cells were harvested in NP-40 lysis buffer (1% NP-40, 50 mM Tris-HCl at pH 7.5, 150 mM NaCl, 1 mM PMSF, 25 mM NaF, 1 mM Na3VO4) supplemented with cOmplete™ Protease Inhibitor Cocktail (Roche). […] Forty-eight hours after transfection, the cells were washed twice with cold PBS and lysed in NP-40 lysis buffer for 1 h on ice. […] The next day, the samples were centrifuged (7,000 × g for 30 s at 4 °C), and the supernatant was discarded. The beads were washed four times with NP-40 lysis buffer, and the bound proteins were eluted in SDS sample buffer for immunoblotting analysis and detected with anti-FLAG (Sigma; F1804, 1:1,000), anti-HA antibody (Sigma; H9658, 1:20,000) and goat anti-mouse IgG secondary antibody (Signalway antibody; L3032, 1:50,000). […] Twenty-four hours after transfection, peptides and peptidomimetics were added to the culture medium for 24 h. […] For endogenous immunoprecipitation, SW480, DLD1, and RKO cells were seeded in 10-cm cell culture dishes.

APC WT = target: T2, APC WT (Homo sapiens, UniProt P25054); assay: ITC assay, APC WT; format: binding; details: 30 °C
T2 sequence (P25054 303-739): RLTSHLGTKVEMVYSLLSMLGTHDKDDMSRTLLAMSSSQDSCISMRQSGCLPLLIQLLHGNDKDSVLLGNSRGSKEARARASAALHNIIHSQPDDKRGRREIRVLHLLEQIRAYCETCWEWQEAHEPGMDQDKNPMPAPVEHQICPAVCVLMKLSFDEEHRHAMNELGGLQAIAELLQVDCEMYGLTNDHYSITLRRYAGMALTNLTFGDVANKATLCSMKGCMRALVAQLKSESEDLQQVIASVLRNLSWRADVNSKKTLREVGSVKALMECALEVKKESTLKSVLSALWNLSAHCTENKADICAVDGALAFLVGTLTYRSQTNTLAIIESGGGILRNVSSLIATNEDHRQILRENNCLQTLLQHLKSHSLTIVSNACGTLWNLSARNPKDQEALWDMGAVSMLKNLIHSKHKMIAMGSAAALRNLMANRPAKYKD
Procedure: ITC experiments were performed using a MicroCal ITC200 calorimeter (Malvern Panalytical Ltd.). APC protein and peptide inhibitors were diluted with buffer containing 50 mM HEPES pH 7.5, 300 mM NaCl and 1 mM EDTA. The cells were loaded with APC proteins at 10–20 μM. All injections were performed using an initial injection of 0.2 μL followed by 19 injections of 2 μL at 100–200 μM. All measurements were carried out at 30 °C. The data were analyzed using a single-site binding model within MicroCal ITC200 analysis software to generate the stoichiometry (N), enthalpy changes (ΔH), entropy changes (ΔS), and the association constant (K) of binding. The changes in free energy (ΔG) were calculated (ΔG = ΔH-TΔS).

His-tagged APC (303–739) = target: T3, His-tagged APC (303–739) (Homo sapiens, UniProt P25054); assay: Surface plasmon resonance (Biacore 8K); format: binding
T3 sequence (P25054 303-739): T2 sequence (P25054 303-739)
Procedure: SPR experiments were performed using a Biacore 8 K system equipped with a CM5 sensor chip. […] The ligand at a 10 μg mL^-1 concentration in 10 mM sodium acetate, pH 5.0, was immobilized on flow cell 2; flow cell 1 was left blank to serve as a reference surface. […] To collect kinetic binding data, a serial concentration of peptide inhibitors in 1× PBS, pH 7.4, was injected over the two flow cells at a flow rate of 30 μL min^-1 and a temperature of 25 °C. The complex was allowed to associate and dissociate for 60–240 and 150–600 s, respectively. The experiments were performed in triplicate. […] The data were fitted to a Langmuir 1:1 binding model using the local Rmax analysis option available in the Biacore insight evaluation software.

SW480 cells [2] = assay: Wound-healing migration assay, SW480; format: cell-based
Procedure: Cells were seeded in 12-well plates at a density of 4 × 10^5 cells per well and grown until 90% confluence in DMEM supplemented with 10% FBS. The monolayers were scratched with a sterile pipette tip (QSP; T104TLS-Q). The cells were washed with 1× PBS and then cultured in culture medium containing 1% FBS and peptides or peptidomimetics. The corresponding photos were captured at the time of scratching and after 24–72 h.

SW480 cells [3] = assay: Transwell migration assay, SW480; format: cell-based
Procedure: Cells were serum-starved for 8 h and then digested and resuspended in serum-free medium. […] The lower chambers were filled with 600 μL of complete medium. […] After 48 h, the Transwell inserts were washed twice with 1× PBS. The cells in the upper chambers of the Transwell inserts were gently removed using cotton-tipped applicators. The cells on the lower surface of the membrane were fixed with methanol and then stained with crystal violet for 10 min. The Transwell inserts were washed with distilled water to remove the excess crystal violet and then dried. The stained cells from different areas were imaged using light microscopy and counted using ImageJ (NIH).

## COc1ccc(C(=O)N[C@@H](C)C(=O)NCC(=O)N[C@@H](CCC(=O)O)C(=O)N[C@@H](CO)C(=O)N[C@@H](CC(C)C)C(=O)N[C@@H](Cc2ccc(O)cc2)C(=O)N[C@@H](CCC(=O)O)C(N)=O)cc1 [MAI-516] ({Benzoyl(4-OMe)}-AGESLYE-NH2)
[1]
  effect on APC–Asef PPI (Co-IP): no effect
APC WT
  -TΔS: 4.85 kcal/mol
  L/P ratio (number of sites per APC): 0.97
  ΔG: -11.6 kcal/mol
  ΔH: -16.4 kcal/mol
APC WT; ITC
  Kd: 4.4 nM
His-tagged APC (303–739)
  RT (RT = 1/koff): 135 s
His-tagged APC (303–739); 1.5625 nM
  Relative response at equilibrium: 2.9457 RU
His-tagged APC (303–739); 3.125 nM
  Relative response at equilibrium: 3.565 RU
His-tagged APC (303–739); 6.25 nM
  Relative response at equilibrium: 5.67 RU
His-tagged APC (303–739); 12.5 nM
  Relative response at equilibrium: 10.1156 RU
His-tagged APC (303–739); 25 nM
  Relative response at equilibrium: 17.7318 RU
His-tagged APC (303–739); 50 nM
  Relative response at equilibrium: 24.4156 RU
His-tagged APC (303–739); 100 nM
  Relative response at equilibrium: 27.6681 RU
His-tagged APC (303–739); 200 nM
  Relative response at equilibrium: 31.5021 RU
His-tagged APC (303–739); SPR, Repeat 1, read-out: KD Repeat 1
  Kd: 19.9 nM
His-tagged APC (303–739); SPR, Repeat 1, read-out: koff Repeat 1
  koff: 0.00848 s⁻¹
His-tagged APC (303–739); SPR, Repeat 1, read-out: kon Repeat 1
  kon: 427000 M⁻¹ s⁻¹
His-tagged APC (303–739); SPR, Repeat 2, read-out: KD Repeat 2
  Kd: 18.8 nM
His-tagged APC (303–739); SPR, Repeat 2, read-out: koff Repeat 2
  koff: 0.00807 s⁻¹
His-tagged APC (303–739); SPR, Repeat 2, read-out: kon Repeat 2
  kon: 430000 M⁻¹ s⁻¹
His-tagged APC (303–739); SPR, Repeat 3, read-out: KD Repeat 3
  Kd: 16 nM
His-tagged APC (303–739); SPR, Repeat 3, read-out: koff Repeat 3
  koff: 0.00564 s⁻¹
His-tagged APC (303–739); SPR, Repeat 3, read-out: kon Repeat 3
  kon: 353000 M⁻¹ s⁻¹
His-tagged APC (303–739); SPR, mean of 3 repeats, read-out: KD mean
  Kd: 18.2 nM
His-tagged APC (303–739); SPR, mean of 3 repeats, read-out: koff mean
  koff: 0.0074 s⁻¹
His-tagged APC (303–739); SPR, mean of 3 repeats, read-out: kon mean
  kon: 403000 M⁻¹ s⁻¹
His-tagged APC (303–739); SPR, single value printed in the Repeat 1 column
  RT: 135 s
SW480 cells [2]; FigS10c, relative to DMSO
  Relative migration ability (single replicates): 0.86 and 1.12 and 0.84
  Relative migration ability, mean: 0.94
SW480 cells [2]; SW480, MAI-516 50 μM
  cell migration (wound healing): dose not inhibit the migration; also recorded: no apparent impact
SW480 cells [3]; FigS10e, relative to DMSO
  Relative migration ability (single replicates): 1.11 and 1.06 and 0.96
  Relative migration ability, mean: 1.04
SW480 cells [3]; SW480, MAI-516 50 μM, 48 h
  cell migration (transwell): dose not inhibit the migration; also recorded: no apparent impact
